US11738031B2, “Compositions and methods for preventing or treating muscle conditions” (The Board of Trustees of the Leland Stanford Junior …, priority 2017, dated 2023)
“Also recorded” adds a separate entry of the source.

Columns and labels:
Format in all cases: cell-based, mouse
[1] = test system: cyclic AMP levels in MuSCs; test: cAMP activity assay (cAMP-Glo); conditions: PGE2 10 ng/ml, 1 hr
Procedure: cAMP activity assay: MuSCs were treated with DMSO (vehicle) or PGE2 (10 ng/ml) for 1 h and cyclic AMP levels measured according to the cAMP-Glo Assay protocol optimized by the manufacturer (Promega). Each sample was assayed in triplicate and in two independent experiments.
MuSCs were treated with DMSO (vehicle) or PGE2 (10 ng/ml) for 1 h and cyclic AMP levels measured according to the cAMP-Glo Assay protocol optimized by the manufacturer (Promega). Each sample was assayed in triplicate and in two independent experiments.

aged MuSCs = test: Clonal aged MuSC proliferation and fate by time-lapse microscopy (48 h)
Source text: Clonal muscle stem cell proliferation and fate analyses: We assayed clonal muscle stem cell proliferation by time-lapse microscopy as previously described^56. Briefly, we treated isolated aged MuSCs with PGE2 (Cayman Chemical) or vehicle (DMSO) for 24 hr. After five days of growth on hydrogels, cells were reseeded at a density of 500 cells per cm^2 surface area in hydrogel microwells with 600 μm diameter. For time-lapse microscopy we monitored cell proliferation for those wells with single cells beginning 12 hr (day 0) to two days after seeding and recorded images every 3 min at 10× magnification using a PALM/AxioObserver Z1 system (Carl Zeiss MicroImaging) with a custom environmental control chamber and motorized stage. We changed medium every other day in between the acquisition time intervals. We analyzed time-lapse image sequences using the Baxter Algorithms for Cell Tracking and Lineage Reconstruction to identify and track single cells and generate lineage trees^5,6,8-10.
Viable and dead cells were distinguished in time-lapse sequences based on phase-contrast boundary and motility maintenance or loss, respectively. […] The values were estimated using the equations described in^6, and found in Table 1. We denote the proliferation rates in the two intervals p24 and p48 and the corresponding death rates d24 and d48. […] The modeled cell counts in the two time intervals are given by […]

[2] = test system: prostaglandin receptors (Ptger1-4); test: Quantitative RT-PCR of prostaglandin receptors in MuSCs; conditions: 24 hr PGE2 treatment of MuSCs
Procedure: Quantitative RT-PCR: We isolated RNA from MuSCs using the RNeasy Micro Kit (Qiagen). […] We reverse-transcribed cDNA from total mRNA from each sample using the SensiFAST™ cDNA Synthesis Kit (Bioline). We subjected cDNA to RT-PCR using SYBR Green PCR Master Mix (Applied Biosystems) or TaqMan Assays (Applied Biosystems) in an ABI 7900HT Real-Time PCR System (Applied Biosystems). We cycled samples at 95° C. for 10 min and then 40 cycles at 95° C. for 15 s and 60° C. for 1 min. […] For SYBR Green qRT-PCR, we used the following primer sequences: Gapdh, forward 5′-[sequence]-3′ (SEQ ID NO: 1), reverse 5′-[sequence]-3′ (SEQ ID NO: 2); Hpgd, forward 5′-[sequence]-3′ (SEQ ID NO: 3), reverse 5′-[sequence]-3′ (SEQ ID NO: 4); Ptges, forward 5′-[sequence]-3′ (SEQ ID NO: 5), reverse 5′-[sequence]-3′ (SEQ ID NO: 6); Ptges2, forward 5′-[sequence]-3′ (SEQ ID NO: 7), reverse 5′-[sequence]-3′ (SEQ ID NO: 8); Ptger1, forward 5′ [sequence]-3′ (SEQ ID NO: 9), reverse, 5′ [sequence]-3′ (SEQ ID NO: 10), and Ptger2, forward 5′-[sequence]-3′ (SEQ ID NO: 11), reverse 5′-[sequence]-3′ (SEQ ID NO: 12). TaqMan Assays (Applied Biosystems) were used to quantify Pax7, Myogenin, Slco2a1 (PGT), Ptger3 and Ptger4 in samples according to the manufacturer instructions with the TaqMan Universal PCR Master Mix reagent kit (Applied Biosystems). Transcript levels were expressed relative to Gapdh levels. […]

[3] = aged MuSC clones, acute PGE2 treatment, time-lapse 48 h
[4] = first 24 hour interval, aged MuSCs
[5] = second 24 hour interval, aged MuSCs
[6] = transient 1 day PGE2, 48 h tracking

CCCCC[C@H](O)/C=C/[C@H]1[C@H](O)CC(=O)[C@@H]1C/C=C\CCCC(=O)O [PGE2, prostaglandin E2]
intracellular cAMP levels [1]: elevated downstream intracellular cyclic AMP (cAMP) levels
percent increase in dead cell count (aged MuSCs; [3]): 0.1%
percent increase in live cell count (aged MuSCs; [3]): 5.4%
d24, estimated death rate (aged MuSCs; [4]): 0.0067 per hours
p24, estimated proliferation rate (aged MuSCs; [4]): 0.0475 per hours
d48, estimated death rate (aged MuSCs; [5]): 0.0012 per hours
p48, estimated proliferation rate (aged MuSCs; [5]): 0.0538 per hours
cell death in aged MuSC clones (aged MuSCs; [6]): profound reduction in cell death
proliferation of aged MuSC clones (aged MuSCs; [6]): marked increase in proliferation
cumulative cell numbers of aged MuSC clones (aged MuSCs; transient 1 day PGE2, 48 h tracking, spanning 6 generations): remarkable increase in cumulative cell numbers
transcript levels of prostaglandin receptors (Ptger1-4) after PGE2 treatment [2]: only receptors upregulated after PGE2 treatment of MuSCs are Ptger1 and Ptger4; also recorded: the most highly expressed receptor in MuSCs is Ptger4
